Measurements published in patent publication US12668607B2, “Heterocyclic amide compound, preparation method therefor and use thereof” (SHANGHAI JEYOU PHARMACEUTICAL CO., LTD., priority 2019, dated 2026).

Experiments:
colon cancer cells CT26 = experiment: Drug efficacy evaluation in CT26 syngeneic mouse model; format: in vivo, Balb/C mice; conditions: CT26 subcutaneous tumors
Method: The compound efficacy evaluation was carried out by a CT26 syngeneic mouse model in this experiment. 3E5 colon cancer cells CT26 (ATCC-CRL-2638) were inoculated subcutaneously into 6-8 week-old Balb/C mice (Shanghai Lingchang Biotechnology Co., Ltd.), and the mice were randomly divided grouped, 6 mice per group when the tumor volume reached 100 mm^3. Intratumoral administration was performed on day 1 after grouping. Compound 1 was administered at a dose of 1 μg per mouse, 0.1 μg per mouse and 0.01 μg per mouse, respectively, for each group. Tumor volume measurements were taken three times a week after the start of administration. The calculation formula for tumor volume was: V=0.5a×b^2, with a and b representing the long and short diameters of the tumor, respectively. Each point is the mean and standard error of mean (SEM) of the tumor volume. Differences between control (saline) and administered groups were statistically analyzed using two-way ANOVA (statistical differences on day 15: Prism 8, ****p<0.0001).

THP1-Dual™ cells = experiment: THP-Dual in vitro binding assay (THP1-Dual reporter cells, Lucia luciferase/QUANTI-Luc); format: cell-based, human; conditions: 30 min compound exposure, wash, 18 h incubation, IF-α/β activity by QUANTI-Luc
From the text: The THP1-Dual™ cells used in the assay (InvivoGen, Catalog code: thpd-nfis) were constructed by stable integration of two inducible reporter genes in the human monocyte-like cell line THP1. The promoter sequence of the secretory embryo alkaline phosphatase (SEAP) reporter gene comprised an IFN-β basal promoter, 5 copies of NF-κB coexpression transcriptional response elements (NF-κB consensus transcriptional response elements) at the upstream and 3 copies of c-Rel binding sites. The secreted luciferase (Lucia) reporter gene was driven by 5 interferon-stimulated response elements (IFN-stimulated response elements) and a basal promoter of ISG54, thus making it possible to study two major downstream signaling pathways of STING simultaneously: the NF KB pathway was studied by assaying the SEAP activity; and the IRF pathway was studied by assessing the activity of Lucia luciferase.
To each well of a 96-well plate were added 20 μL of reference compounds or the compounds to be detected followed by the addition of 180 μL of THP1-Dual™ cell-containing FBS-free RPMI-1640 culture medium (about 90,000 cells/well). After incubating at 37° C. for 30 min under 5% CO2, the plate was centrifuged at 1000 rpm for 10 min, the supernatant was discarded, and the plate was washed twice with RPMI-1640 at 200 μL/well, and incubated for 18 h with RPMI-1640 at 200 µL/well. IF-α/β activity was quantified using QUANTI-Luc™ prepared and used according to the manufacturer's instructions.

human STING protein = target: T1, human STING protein (Homo sapiens, UniProt Q86WV6, H232R); experiment: STING in vitro binding assay (fluorescence polarization, FP affinity assay); conditions: competition with 30 nM fluorescein-labeled c-di-GMP, 10 μM recombinant human wild-type STING C-terminal protein (aa 140-379), 30 min room temperature
T1 construct: from the 140th amino acid to the 379th amino acid; 6His-SUMO (N, cleaved yes); made in house
T1 sequence (Q86WV6 140-379 H232R): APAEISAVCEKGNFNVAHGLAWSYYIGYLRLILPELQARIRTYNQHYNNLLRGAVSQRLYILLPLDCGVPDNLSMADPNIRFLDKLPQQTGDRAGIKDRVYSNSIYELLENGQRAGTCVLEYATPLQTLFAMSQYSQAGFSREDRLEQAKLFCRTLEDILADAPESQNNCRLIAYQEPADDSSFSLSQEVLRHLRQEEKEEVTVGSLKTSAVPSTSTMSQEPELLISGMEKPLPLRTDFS
Method: Fluorescence polarization assay (FP assay) was used to detect the affinities of compounds to a human STING protein. The reaction system contained a certain amount of fluorescein labeled C-di-GMP and compounds to be detected with different concentrations, and when the C-terminal protein of the recombinant human STING was added, the two small molecules were competitively bound with the protein. The bound fluorescein-labeled c-di-GMP rotated slowly in the liquid phase, and at this point, the degree of fluorescence polarization detected was also high. The fluorescence polarization degree was in inverse relation with the concentrations and the affinities of the compounds to be detected. By detecting the magnitude of the polarized light in the reaction system, the affinities of the compounds to be detected to human STING could be accurately known.
The N-terminal of the recombinant STING protein was a 6His-SUMO sequence to facilitate correct protein folding and purification, and after protease cleavage, the C-terminal STING was used for FP assay.
In FP assay, a 384-well plate was used, with the fluorescein-labeled c-di-GMP with a final concentration of 30 nM, 10 μM human STING protein, and either reference compounds with different concentrations or the compounds to be detected added into 10 μL of the reaction system each well. The plate was centrifuged at 1000 g for 1 min, incubated at room temperature for 30 min in the dark and read with Envision.

| Compound | tumor growth speed compared with the control group (colon cancer cells CT26; intratumoral administration day 1, 1, 0.1 and 0.01 μg per mouse, two-way ANOVA day 15 ****p<0.0001 vs saline) | inhibition of tumor growth in mice (dose relation) (colon cancer cells CT26; intratumoral, 1, 0.1 and 0.01 μg per mouse) | EC50 (THP1-Dual™ cells; Homo sapiens) | IC50 (human STING protein) | EC50 (THP1-Dual™ cells) |
| --- | --- | --- | --- | --- | --- |
| CCn1nc(C)cc1C(=O)/N=c1/[nH]c2cc(C(N)=O)cc(OC)c2n1C/C=C/Cn1/c(=N/C(=O)c2cc(C)nn2CC)[nH]c2cc(C(N)=O)cc(OCCCO[C@H]3[C@@H](OC)O[C@H](CO)[C@@H](O)[C@@H]3O)c21 [Compound 1] | significantly slowed down | dose-dependent | 21 nM | 400 nM | – |
| CCn1nc(C)cc1C(=O)/N=c1/[nH]c2cc(C(N)=O)cc(OC)c2n1C/C=C/Cn1/c(=N/C(=O)c2cc(C)nn2CC)[nH]c2cc(C(N)=O)cc(OCCCOC(=O)[C@@H](N)C(C)C)c21 [Compound 2] | – | – | 8 nM | 1700 nM | – |
| CCn1nc(C)cc1C(=O)/N=c1/[nH]c2cc(C(N)=O)cc(OC)c2n1C/C=C/Cn1/c(=N/C(=O)c2cc(C)nn2CC)[nH]c2cc(C(N)=O)cc(OCCCO[C@H]3[C@H](OC)O[C@H](CO)[C@H]3O)c21 [Compound 3] | – | – | 40 nM | 3700 nM | – |
| CCn1nc(C)cc1C(=O)/N=c1/[nH]c2cc(C(N)=O)cc(OCCCN3CCOCC3)c2n1C/C=C/Cn1/c(=N/C(=O)c2cc(C)nn2CC)[nH]c2cc(C(N)=O)cc(OCCCO[C@H]3[C@@H](OC)O[C@H](CO)[C@@H](O)[C@@H]3O)c21 [Compound 4] | – | – | 520 nM | 1600 nM | – |
| CCn1nc(C)c2c1C(=O)/N=C1\Nc3cc(C(N)=O)cc(OCCCO[C@H]4[C@@H](OC)O[C@H](CO)[C@@H](O)[C@@H]4O)c3N1C/C=C/CN1/C(=N\C(=O)c3cc(C)nn3CCCCC2)Nc2cc(C(N)=O)cc(OC)c21 [Compound 5] | – | – | 60 nM | 1500 nM | – |
| CCn1nc(C)cc1C(=O)/N=c1/[nH]c2cc(C(N)=O)cc(OC)c2n1C/C=C/Cn1/c(=N/C(=O)c2cc(C)nn2CC)[nH]c2cc(C(N)=O)cc(OCCN3CCCC4(CCNC4)C3)c21 (centres unmarked) [Compound 6] | – | – | 2100 nM | 2200 nM | – |
| CCn1nc(C)cc1C(=O)/N=c1/[nH]c2cc(C(N)=O)cc(OC)c2n1C/C=C/Cn1/c(=N/C(=O)c2cc(C)nn2CC)[nH]c2cc(C(N)=O)cc(OCCCN3CC4(COC4)C3)c21 [Compound 7] | – | – | 80 nM | 3800 nM | – |
| Nc1ncnc2c1ncn2[C@@H]1O[C@@H]2COP(O)(=S)O[C@@H]3C(O)[C@@H](COP(O)(=S)O[C@H]2[C@H]1O)O[C@H]3n1cnc2c(N)ncnc21 (some centres unmarked) [ML RR-S2 CDA, reference compound] | – | – | – | – | 18200 nM |
